This series concerns alanine aminotransferase (ALAT) levels. Description: Clinical trials, longer-term ximelagatran treatment: alanine aminotransferase (ALAT) elevation. The series is classed as in vivo, human. An excerpt:
Phase III clinical trials have been performed using fixed doses of melagatran and ximelagatran for the prevention of VTE in hip or knee replacement surgery. In addition, clinical trials have been performed using ximelagatran for the treatment and long-term secondary prevention of VTE, and for the prevention of stroke in patients with non-valvular atrial fibrillation. Ximelagatran has also been tested for secondary thrombosis prophylaxis post-myocardial infarction/acute coronary syndrome (ACS).
Alanine aminotransferrase (ALAT) is an enzyme mostly expressed in the liver (EC 2.6.1.2). It is also called serum glutamate pyruvate transaminase (SGPT) or alanine transaminase (ALT). This enzyme is release into the plasma by liver cell death, which is a normal event. However, when liver cell death increases, ALAT levels rise above the normal range. The spill-over of this enzyme into blood is routinely measured as a marker of abnormal liver-cell damage. For example, alcoholic or viral hepatitis will increase ALAT levels, as will severe congestive heart failure. ALAT is also markedly raised in hepatitis and other acute liver damage. An elevated ALAT in the presence of normal levels of plasma alkaline phosphatase helps distinguish liver disease caused by liver-cell damage from diseases caused by problems in biliary ducts. Elevations of ALAT are normally measured in multiples of the upper limit of normal (ULN), with a reference range of 15-45 U/L in most laboratories. In 1987, in a study of 19,877 healthy Air Force recruits, only 99 (0.5%) had confirmed ALAT elevations (as reviewed in Green & Flamm (2002) Gastroenterology 123:1367-1384).
The increase in ALAT values with ximelagatran, usually occurred within the first 6 months of treatment and were mainly asymptomatic. […] Subject to the future regulatory approval of ximelagatran, regular liver function testing (LFT) using an appropriate algorithm may be required if ximelagatran is used for treatment periods exceeding a month. […]

We go through one compound from patent US20090054394A1, “POLYMORPHISMS IN MGST3 ARE ASSOCIATED WITH ELEVATED ALAT LEVELS AFTER XIMELAGATRAN TREATMENT” (priority 2005, published 2009).

Bounds are passed on as bounds.

For `CCOC(=O)CN[C@@H](C(=O)N1CC[C@H]1C(=O)NCc1ccc(/C(N)=N\O)cc1)C1CCCCC1` [ximelagatran, EtOOC—CH2—(R)Cgl-Aze-Pab-OH], the “patients exhibiting ALAT 3-fold or more above the upper limit of normal (≧3×ULN)” value (longer-term treatment (>35 days), 1.2% in the comparator groups) amounted to 7.9%. For the setting “regardless of whether treatment was continued or discontinued”, the “reversibility of the increases in ALAT” value was “reversible in most patients”. Also, the “time of occurrence of the increase in ALAT values” (usually, time from start of treatment) is at most 6 months.
